Results from PMC12624432, “Development of Novel ^18F‑Labeled Selective Orexin‑2 Receptor Radioligands for Positron Emission Tomography” (ACS Pharmacology & Translational Science, 2025).
Entries after “also recorded” stand apart in the source; their conditions may differ.

Columns and labels:
[1] = Radiometabolic analysis in plasma and brain; type: in vivo, SD rats; conditions: rat brain homogenate, 30 min postinjection
Procedure: According to a previous report, SD rats were euthanized 30 min after the administration of [^18F]1 or [^18F]2. The brain was collected, homogenized with cold MeCN and PBS, and centrifuged (14,000g, 5 min) at 4 °C. The supernatant was analyzed by HPLC, and both tracers and radiometabolites were collected and measured by a γ counter. The same procedure was conducted for plasma.

OX2R [2] = target: T1, OX2R (Rattus norvegicus, UniProt P56719); assay: In vitro autoradiography on rat brain sections; type: binding; parameters: from tissue; host or cells: rat brain sections; conditions: blocking with EMPA, LSN2424100 or authentic reference compound, 10 μM, across regions
T1 sequence (P56719 1-460): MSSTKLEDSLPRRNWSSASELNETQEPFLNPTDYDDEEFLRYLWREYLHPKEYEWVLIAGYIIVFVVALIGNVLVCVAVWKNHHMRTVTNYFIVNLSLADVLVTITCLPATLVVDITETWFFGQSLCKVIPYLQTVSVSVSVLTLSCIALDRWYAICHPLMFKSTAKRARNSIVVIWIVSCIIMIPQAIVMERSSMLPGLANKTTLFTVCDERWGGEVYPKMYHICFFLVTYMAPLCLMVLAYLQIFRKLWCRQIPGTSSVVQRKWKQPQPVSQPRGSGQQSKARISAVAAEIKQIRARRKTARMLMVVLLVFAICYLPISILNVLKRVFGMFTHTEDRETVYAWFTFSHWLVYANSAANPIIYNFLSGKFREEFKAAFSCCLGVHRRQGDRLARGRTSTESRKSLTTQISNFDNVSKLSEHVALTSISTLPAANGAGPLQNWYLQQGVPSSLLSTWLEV
Procedure: According to a previous report, rat brain sections were incubated with Tris-HCl buffer (50 mM) and then with [^18F]1 or [^18F]2. In the blocking study, brain sections were incubated with the tracer in the presence of 1, 2, EMPA, or LSN2424100 (10 μM). Then the brain sections were washed with the cold buffer, dried, exposed to an imaging screen, and scanned with a Typhoon biomolecular imager.

OX2R [3] = target: T1, OX2R; assay: Dynamic PET imaging in the rat brain; type: in vivo, Sprague–Dawley rats; parameters: from tissue; host or cells: brain of living Sprague-Dawley rats; conditions: for tracer uptake reduction under blocking: EMPA or LSN2424100 1 mg/kg after elacridar pretreatment, all brain regions; for peak SUV in brain: baseline, 0.5 min postinjection; for increase in SUV0–60 min with elacridar: co-administration of elacridar 5 mg/kg (P-gp/BCRP inhibitor), across brain regions
Procedure: PET imaging was performed according to previous reports , with minor modifications. [^18F]1 or [^18F]2 (40 μCi) was administered via the tail vein of SD rats, and dynamic scans were performed with a G8 PET scanner (Sofie) for 60 min. In the blocking study, elacridar (5 mg/kg) and OX2R antagonist (EMPA or LSN2424100, 1 mg/kg) were injected at 20 and 10 min before the administration of the tracer, respectively.

OX2R [4] = assay: OX2R binding affinity; conditions: for selectivity over OX1R: OX2R over OX1R; for selectivity (OX2R/OX1R): ratio of Ki OX1 to Ki OX2
[5] = In vitro tracer stability in saline; type: physicochemical; conditions: over the studied time intervals
Procedure: (§1) [^18F]1 and [^18F]2 were obtained in 24% and 53% decay-corrected radiochemical yields (RCYs) with molar activities of 53 GBq/μmol and 38 GBq/μmol, respectively. […] Furthermore, in vitro stability tests of [^18F]1 and [^18F]2 were conducted in saline, serums, and liver microsomes across species.

[6] = In vitro tracer stability in serum; type: in vitro ADME; conditions: mouse, rat, nonhuman primate and human serum
Procedure: as §1

OX2R [7] = target: OX2R; parameters: method as in earlier work; conditions: no binding method in paper; compounds previously reported; read-out: K i/OX2; cited from earlier work
[8] = In vitro tracer stability in liver microsomes; type: in vitro ADME; conditions: mouse, rat and human liver microsomes
Procedure: as §1
Figure S3. Stability of [ 18F]1 in liver microsomes. (A) Stability of [ 18F]1 in mouse liver microsome; (B) Stability of [18F]1 in rat liver microsome; (C) Stability of [ 18F]1 in human […]
Figure S4. Stability of [ 18F]2 in liver microsomes. (A) Stability of [ 18F]2 in mouse liver microsome; (B) Stability of [18F]2 in rat liver microsome; (C) Stability of [ 18F]2 in human […]
Figure S5. TACs of [ 18F]1 in the whole rat brain under baseline and blocking (elacridar, elacridar and EMPA, or elacridar and LSN2424100; elacridar in 5 mg/kg, EMPA and LSN2424100 in 1 mg/kg) conditions; All data are mean ± SD, n ≥ 3. […]

OX2R [9] = system: OX2R; parameters: method as in not given; conditions: introduction, literature statement; ref not given; cited from earlier work
sigma-2 = sigma-2 (Homo sapiens, UniProt Q5BJF2); assay: Off-target binding, sigma-2; conditions: read-out: K i sigma-2
Sequence of sigma-2 (Q5BJF2 whole entry): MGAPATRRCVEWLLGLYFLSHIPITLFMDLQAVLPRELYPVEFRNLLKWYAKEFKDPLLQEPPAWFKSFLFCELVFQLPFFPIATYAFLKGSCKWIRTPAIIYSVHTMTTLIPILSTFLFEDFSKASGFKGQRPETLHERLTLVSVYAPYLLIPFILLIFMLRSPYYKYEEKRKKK
Procedure: (§2) Target selectivity over OX1R exceeded 600-fold for both compounds, satisfying a key prerequisite for selective OX2R imaging. […] CNS penetration was further predicted using Percepta, yielding log BB values of −0.14 and −0.36 for compounds 1 and 2, respectively, well above the empirical threshold for BBB permeability (log BB > −1). Additionally, off-target binding screening was conducted for compounds 1 and 2 toward 59 major CNS targets (Figures S1 and S2).
(§3) 1. Supporting Figures and Tables
(§4) Figure S1. Off-target pharmacological evaluation of compound 1. Initial screening of 59 major CNS targets at a concentration of 1 at 10 μM, including common GPCRs, enzymes, ion channels, and transporters. All data are mean ± SD (n ≥ 3).
(§5) Figure S2. Off-target pharmacological evaluation of compound 2. Initial screening of 59 major CNS targets at a concentration of 2 at 10 μM, including common GPCRs, enzymes, […]

NR2B receptors = NR2B receptors (Homo sapiens, UniProt Q05586+Q13224); assay: Off-target binding, NR2B; conditions: read-out: K i NR2B
Sequence of NR2B receptors (Q13224 27-1484, other chains not shown): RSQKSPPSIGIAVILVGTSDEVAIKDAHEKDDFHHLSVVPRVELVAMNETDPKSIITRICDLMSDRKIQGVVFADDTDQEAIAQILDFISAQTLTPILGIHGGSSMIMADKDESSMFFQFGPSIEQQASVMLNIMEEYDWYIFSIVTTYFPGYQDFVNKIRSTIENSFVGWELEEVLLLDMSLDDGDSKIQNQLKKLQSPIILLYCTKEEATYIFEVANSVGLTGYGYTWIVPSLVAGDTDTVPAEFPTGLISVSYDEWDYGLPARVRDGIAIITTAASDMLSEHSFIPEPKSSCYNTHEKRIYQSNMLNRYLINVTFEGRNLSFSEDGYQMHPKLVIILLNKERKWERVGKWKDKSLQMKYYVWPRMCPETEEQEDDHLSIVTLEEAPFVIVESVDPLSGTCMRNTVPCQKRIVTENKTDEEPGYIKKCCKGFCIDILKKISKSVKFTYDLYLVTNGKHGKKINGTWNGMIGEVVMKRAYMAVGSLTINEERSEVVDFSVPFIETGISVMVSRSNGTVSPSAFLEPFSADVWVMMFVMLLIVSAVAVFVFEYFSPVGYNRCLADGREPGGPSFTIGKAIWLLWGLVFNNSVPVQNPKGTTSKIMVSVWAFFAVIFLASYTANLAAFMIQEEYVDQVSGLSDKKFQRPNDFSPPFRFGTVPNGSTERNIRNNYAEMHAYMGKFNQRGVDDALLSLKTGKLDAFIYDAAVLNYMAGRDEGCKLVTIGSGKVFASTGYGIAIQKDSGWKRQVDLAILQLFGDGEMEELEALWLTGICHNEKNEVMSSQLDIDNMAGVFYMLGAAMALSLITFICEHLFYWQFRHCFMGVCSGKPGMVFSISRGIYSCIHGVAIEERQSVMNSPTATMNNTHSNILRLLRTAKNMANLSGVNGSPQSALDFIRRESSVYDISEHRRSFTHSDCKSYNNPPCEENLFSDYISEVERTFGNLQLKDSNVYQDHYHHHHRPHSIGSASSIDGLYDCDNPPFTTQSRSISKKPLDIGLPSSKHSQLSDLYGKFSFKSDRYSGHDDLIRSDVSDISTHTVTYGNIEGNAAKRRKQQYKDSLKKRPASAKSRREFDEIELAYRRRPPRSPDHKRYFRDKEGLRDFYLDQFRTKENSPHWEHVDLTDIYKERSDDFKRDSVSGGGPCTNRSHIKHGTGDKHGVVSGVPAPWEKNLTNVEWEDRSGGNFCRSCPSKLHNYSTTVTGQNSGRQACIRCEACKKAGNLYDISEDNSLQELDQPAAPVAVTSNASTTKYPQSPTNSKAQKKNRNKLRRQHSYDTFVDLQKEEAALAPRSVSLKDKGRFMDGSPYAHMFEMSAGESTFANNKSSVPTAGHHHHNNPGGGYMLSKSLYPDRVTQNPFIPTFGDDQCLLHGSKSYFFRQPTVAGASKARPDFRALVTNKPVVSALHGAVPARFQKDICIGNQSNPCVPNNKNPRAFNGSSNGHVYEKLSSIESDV
Procedure: as §2, §3, §4, §5

Experimental log D = type: physicochemical
Excerpt: 1 Representative Pharmacological and Physicochemical Properties of 1 and 2 | column: compound 1; compound 2

[10] = system: 59 major CNS targets (GPCRs, enzymes, ion channels, transporters); assay: Off-target binding screening of 59 major CNS targets; conditions: 10 μM; significant = > 50%; except sigma 2 (and NR2B for 1)
Procedure: as §2, §3, §4, §5

OX1R = target: OX1R; parameters: method as in earlier work; conditions: no binding method in paper; compounds previously reported; read-out: K i/OX1; cited from earlier work

Row | Molecule | intact parent tracer in brain [1] | autoradiography signal reduction under blocking (OX2R [2]) | tracer uptake reduction under blocking (OX2R [3]) | peak SUV in brain (OX2R [3]) | increase in SUV0–60 min with elacridar (OX2R [3]) [%] | selectivity over OX1R (OX2R [4]) | radiometabolites in saline (stability) [5] | radiometabolites in serum (stability) [6] | Ki (OX2R [7]) [µM] | radiometabolites in liver microsomes (stability) [8] | selectivity for OX2R (OX2R [9]) [fold] | Ki (sigma-2) [µM] | selectivity (OX2R/OX1R) (OX2R [4]) | Ki (NR2B receptors) [µM] | logD (Experimental log D) | off-target binding toward 59 major CNS targets [10] | Ki (OX1R) [µM]
1 | Cc1c(C#N)ccnc1O[C@@H]1CC[C@@H](C)N(C(=O)c2cc([18F])ccc2-c2nccs2)C1 [[^18F]1] | ca. 90% | 54–84% | 40–43% | 2.1 | > 100 | > 600 fold | No appreciable radiometabolites were detected | No appreciable radiometabolites were detected | 0.0001 | No appreciable radiometabolites were detected |  |  |  |  |  |  | 
2 | orexin B: endogenous neuropeptide ligand of the orexin receptors, selective for OX2R |  |  |  |  |  |  |  |  |  |  | > 10 |  |  |  |  |  | 
3 | Cc1c(C#N)ccnc1O[C@@H]1CC[C@@H](C)N(C(=O)c2cc(F)ccc2-c2nccs2)C1 [compound 1, 2-(((3R,6R)-1-(5-Fluoro-2-(thiazol-2-yl)benzoyl)-6-methylpiperidin-3-yl)oxy)-3-methylisonicotinonitrile] |  |  |  |  |  | exceeded 600 fold |  |  | 0.0001 |  |  | 2.68 | 890 | 9.48 | 3.43 | No off-target activity was observed; also recorded: No significant off-target | 0.089
4 | CC1CCC(Oc2cc(C#N)ccn2)CN1C(=O)c1cc([18F])ccc1-c1ncccn1 (stereo not drawn) [[^18F]2] | ca. 90% | 51–71% | 23–46% | 1.8 | > 100 | > 600 fold | No appreciable radiometabolites were detected | No appreciable radiometabolites were detected | 0.001 | No appreciable radiometabolites were detected |  |  |  |  |  |  | 
5 | C[C@@H]1CC[C@@H](Oc2cc(C#N)ccn2)CN1C(=O)c1cc(F)ccc1-c1ncccn1 [compound 2, 2-(((3R,6R)-1-(5-Fluoro-2-(pyrimidin-2-yl)benzoyl)-6-methylpiperidin-3-yl)oxy)isonicotinonitrile] |  |  |  |  |  | exceeded 600 fold |  |  | 0.001 |  |  | 4.73 | 658 |  | 2.54 | No off-target activity was observed; also recorded: No significant off-target | 0.658
